For series [1] the following is noted: controlled studies; cited from earlier work.
For series [2] the following is noted: administered IP or IV; cited from earlier work.
Series [3] in a line: Example 1: tolerability study of mirtazapine and betahistine. Type of series: in vivo, normal, health subjects. The note with it: 6 weeks of therapy, healthy subjects. As to the method: The subjects receive 2 capsules per day, one in the morning and one at bedtime. […] In a different dosage range, the subjects receive 3 capsules per day, one in the morning, one at noon and one at bedtime. […] In a different dosage range, the subjects receive 2 capsules per day, one in the morning and one at bedtime. […] All medications are administered in an over-encapsulated format that ensures blinding of study participants, staff and investigators. All subjects are scheduled to receive a total of 6 weeks of therapy, and are required to return to the clinics after 1, 2, 4 and 6 weeks of therapy. Patients are required to complete paper self-assessments, electronic diary assessments, computer based cognitive testing, as well as vital signs and weight assessments at the clinic visits.

The conditions of series [4]: in vivo; cited from earlier work.
Another series deals with alpha-2 receptors. The following applies: cited from earlier work.
The target of a further series is T1, 5HT3 serotonin receptors (Homo sapiens, UniProt P46098).
T1 sequence (P46098 24-478): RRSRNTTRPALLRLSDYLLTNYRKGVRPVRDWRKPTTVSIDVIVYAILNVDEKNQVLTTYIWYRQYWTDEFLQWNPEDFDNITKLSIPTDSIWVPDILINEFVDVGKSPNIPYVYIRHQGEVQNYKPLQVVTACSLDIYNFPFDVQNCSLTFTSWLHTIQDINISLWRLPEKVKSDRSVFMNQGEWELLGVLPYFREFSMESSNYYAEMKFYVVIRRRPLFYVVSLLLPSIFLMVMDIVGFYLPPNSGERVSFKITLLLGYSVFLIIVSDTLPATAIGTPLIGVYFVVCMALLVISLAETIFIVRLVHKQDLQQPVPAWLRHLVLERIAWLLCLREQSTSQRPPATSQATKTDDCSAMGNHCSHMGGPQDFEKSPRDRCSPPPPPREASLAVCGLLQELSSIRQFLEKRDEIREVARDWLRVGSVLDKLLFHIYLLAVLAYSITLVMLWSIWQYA
The note with it: cited from earlier work.

Series [5] relates to muscarinic cholinergic receptors. The note with it: cited from earlier work.
For another series, the target named is reuptake of 5HT (Homo sapiens, UniProt P31645). The note with it: cited from earlier work.
reuptake of 5HT, sequence (P31645 whole entry): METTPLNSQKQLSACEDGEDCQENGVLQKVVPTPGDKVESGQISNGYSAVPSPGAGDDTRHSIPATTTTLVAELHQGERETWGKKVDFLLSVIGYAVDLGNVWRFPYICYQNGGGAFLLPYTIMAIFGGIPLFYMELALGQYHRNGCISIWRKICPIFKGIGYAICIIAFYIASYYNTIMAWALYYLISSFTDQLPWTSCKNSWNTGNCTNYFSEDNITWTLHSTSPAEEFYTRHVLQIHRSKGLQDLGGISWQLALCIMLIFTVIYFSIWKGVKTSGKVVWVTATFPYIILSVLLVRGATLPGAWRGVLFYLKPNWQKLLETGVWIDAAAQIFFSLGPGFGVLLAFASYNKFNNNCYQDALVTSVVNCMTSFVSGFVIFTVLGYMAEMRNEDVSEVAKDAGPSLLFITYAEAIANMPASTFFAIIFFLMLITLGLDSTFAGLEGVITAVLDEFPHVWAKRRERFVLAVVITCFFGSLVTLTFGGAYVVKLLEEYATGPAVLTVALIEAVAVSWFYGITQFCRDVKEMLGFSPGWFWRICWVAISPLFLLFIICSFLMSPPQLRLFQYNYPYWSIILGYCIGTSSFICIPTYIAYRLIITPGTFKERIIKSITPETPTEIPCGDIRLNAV
Series [6] has as its target 5HT2A serotonin receptors (Homo sapiens, UniProt P28223). The following applies: cited from earlier work.
In the next series the target is norepinephrine reuptake (Homo sapiens, UniProt P23975). The note with it: cited from earlier work.
norepinephrine reuptake, sequence (P23975 whole entry): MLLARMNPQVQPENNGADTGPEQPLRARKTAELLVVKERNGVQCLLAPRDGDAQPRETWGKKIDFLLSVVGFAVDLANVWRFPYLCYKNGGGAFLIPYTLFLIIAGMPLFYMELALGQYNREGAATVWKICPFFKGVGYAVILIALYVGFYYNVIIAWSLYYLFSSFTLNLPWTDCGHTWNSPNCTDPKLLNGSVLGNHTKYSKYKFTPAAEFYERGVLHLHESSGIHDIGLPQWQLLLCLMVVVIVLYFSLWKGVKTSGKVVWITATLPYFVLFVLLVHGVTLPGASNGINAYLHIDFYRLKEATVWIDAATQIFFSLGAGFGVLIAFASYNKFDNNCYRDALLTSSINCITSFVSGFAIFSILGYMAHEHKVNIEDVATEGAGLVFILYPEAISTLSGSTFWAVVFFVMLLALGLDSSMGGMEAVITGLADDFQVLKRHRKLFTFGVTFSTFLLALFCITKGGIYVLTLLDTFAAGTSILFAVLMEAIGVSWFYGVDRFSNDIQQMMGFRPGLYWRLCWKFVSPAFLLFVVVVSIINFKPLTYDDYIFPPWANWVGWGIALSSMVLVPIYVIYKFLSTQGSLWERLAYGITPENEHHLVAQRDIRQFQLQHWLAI
Another series addresses T2, 5HT1A receptors (Homo sapiens, UniProt P08908).
T2 sequence (P08908 1-422): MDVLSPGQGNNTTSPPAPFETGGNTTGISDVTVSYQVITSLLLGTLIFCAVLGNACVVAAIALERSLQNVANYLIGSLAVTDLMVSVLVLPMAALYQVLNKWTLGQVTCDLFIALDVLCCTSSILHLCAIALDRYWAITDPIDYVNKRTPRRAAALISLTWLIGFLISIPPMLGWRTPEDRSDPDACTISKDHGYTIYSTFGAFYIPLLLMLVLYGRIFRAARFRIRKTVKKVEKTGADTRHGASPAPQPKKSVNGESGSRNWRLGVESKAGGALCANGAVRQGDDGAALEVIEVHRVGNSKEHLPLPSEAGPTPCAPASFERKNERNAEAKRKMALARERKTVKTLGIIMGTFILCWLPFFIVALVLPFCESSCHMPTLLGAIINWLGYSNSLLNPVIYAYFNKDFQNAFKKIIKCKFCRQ
The following applies: cited from earlier work.

Another series deals with reuptake of dopamine (Homo sapiens, UniProt Q01959). The following applies: cited from earlier work.
reuptake of dopamine, sequence (Q01959 whole entry): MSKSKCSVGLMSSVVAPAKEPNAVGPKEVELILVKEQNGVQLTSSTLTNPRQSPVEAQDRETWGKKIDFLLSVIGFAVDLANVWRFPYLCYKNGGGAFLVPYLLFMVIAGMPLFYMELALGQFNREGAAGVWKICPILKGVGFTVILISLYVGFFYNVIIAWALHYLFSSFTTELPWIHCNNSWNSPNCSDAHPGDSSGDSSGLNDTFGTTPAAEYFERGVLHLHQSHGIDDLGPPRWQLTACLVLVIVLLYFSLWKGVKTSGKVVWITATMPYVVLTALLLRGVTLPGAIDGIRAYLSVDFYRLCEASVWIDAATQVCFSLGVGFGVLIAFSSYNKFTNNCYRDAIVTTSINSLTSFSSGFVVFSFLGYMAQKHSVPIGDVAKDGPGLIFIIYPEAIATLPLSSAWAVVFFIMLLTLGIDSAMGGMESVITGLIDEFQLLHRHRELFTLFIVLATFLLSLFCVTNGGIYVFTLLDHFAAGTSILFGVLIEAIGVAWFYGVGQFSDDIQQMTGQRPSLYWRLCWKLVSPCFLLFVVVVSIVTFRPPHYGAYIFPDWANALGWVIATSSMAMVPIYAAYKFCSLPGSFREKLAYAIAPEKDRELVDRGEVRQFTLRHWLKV
For a further series, the target named is histamine H1 receptors (Homo sapiens, UniProt P35367). The following applies: cited from earlier work.
histamine H1 receptors, sequence (P35367 whole entry): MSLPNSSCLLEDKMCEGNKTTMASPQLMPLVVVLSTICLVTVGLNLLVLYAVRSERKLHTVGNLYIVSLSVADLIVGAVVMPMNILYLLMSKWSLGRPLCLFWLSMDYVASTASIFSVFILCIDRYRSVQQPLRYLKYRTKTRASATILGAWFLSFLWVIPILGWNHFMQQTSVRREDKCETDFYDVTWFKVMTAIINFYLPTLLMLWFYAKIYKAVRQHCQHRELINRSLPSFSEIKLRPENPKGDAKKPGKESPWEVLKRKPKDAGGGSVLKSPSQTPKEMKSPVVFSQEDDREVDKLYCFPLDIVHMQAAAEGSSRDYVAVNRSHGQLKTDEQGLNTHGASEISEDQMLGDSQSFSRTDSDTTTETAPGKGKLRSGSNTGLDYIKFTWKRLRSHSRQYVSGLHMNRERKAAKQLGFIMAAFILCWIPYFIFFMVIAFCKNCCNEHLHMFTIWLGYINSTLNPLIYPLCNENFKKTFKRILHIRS
Series [7] has as its target T3, 5HT2C serotonin receptors (Homo sapiens, UniProt P28335).
T3 sequence (P28335 33-458): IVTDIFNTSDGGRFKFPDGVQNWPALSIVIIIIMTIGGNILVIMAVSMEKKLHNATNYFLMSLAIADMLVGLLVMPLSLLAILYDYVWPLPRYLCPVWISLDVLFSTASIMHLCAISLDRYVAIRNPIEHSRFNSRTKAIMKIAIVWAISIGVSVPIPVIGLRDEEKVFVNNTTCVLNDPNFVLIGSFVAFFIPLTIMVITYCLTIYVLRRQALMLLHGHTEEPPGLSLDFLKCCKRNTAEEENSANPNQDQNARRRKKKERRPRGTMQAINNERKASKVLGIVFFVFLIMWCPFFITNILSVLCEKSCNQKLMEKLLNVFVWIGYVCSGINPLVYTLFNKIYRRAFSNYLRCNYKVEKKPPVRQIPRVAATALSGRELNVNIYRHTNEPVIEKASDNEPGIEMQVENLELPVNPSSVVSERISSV
The note with it: cited from earlier work.

Another series deals with 5HT1B receptors (Homo sapiens, UniProt P28222). The note with it: cited from earlier work.
5HT1B receptors, sequence (P28222 whole entry): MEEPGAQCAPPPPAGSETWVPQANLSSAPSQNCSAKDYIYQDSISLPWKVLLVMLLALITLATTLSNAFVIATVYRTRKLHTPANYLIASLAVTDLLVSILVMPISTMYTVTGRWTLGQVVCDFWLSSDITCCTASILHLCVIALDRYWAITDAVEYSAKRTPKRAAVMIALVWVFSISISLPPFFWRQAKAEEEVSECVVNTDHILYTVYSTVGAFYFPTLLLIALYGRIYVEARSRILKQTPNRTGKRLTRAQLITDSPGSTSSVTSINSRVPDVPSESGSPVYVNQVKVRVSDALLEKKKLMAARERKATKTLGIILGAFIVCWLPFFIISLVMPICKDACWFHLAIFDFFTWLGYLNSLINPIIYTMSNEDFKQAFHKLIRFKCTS
In series [8] the test system is alpha-1 adrenergic receptors. The note with it: cited from earlier work.
For a further series, the system named is 5HT2 receptors. The note with it: cited from earlier work.

The text below walks through data of patent US20100204205A1 (priority 2007, published 2010).

Each structure is given as a SMILES string. “Also recorded” adds a separate entry of the source.

5HT2A serotonin receptors, sequence (P28223 whole entry): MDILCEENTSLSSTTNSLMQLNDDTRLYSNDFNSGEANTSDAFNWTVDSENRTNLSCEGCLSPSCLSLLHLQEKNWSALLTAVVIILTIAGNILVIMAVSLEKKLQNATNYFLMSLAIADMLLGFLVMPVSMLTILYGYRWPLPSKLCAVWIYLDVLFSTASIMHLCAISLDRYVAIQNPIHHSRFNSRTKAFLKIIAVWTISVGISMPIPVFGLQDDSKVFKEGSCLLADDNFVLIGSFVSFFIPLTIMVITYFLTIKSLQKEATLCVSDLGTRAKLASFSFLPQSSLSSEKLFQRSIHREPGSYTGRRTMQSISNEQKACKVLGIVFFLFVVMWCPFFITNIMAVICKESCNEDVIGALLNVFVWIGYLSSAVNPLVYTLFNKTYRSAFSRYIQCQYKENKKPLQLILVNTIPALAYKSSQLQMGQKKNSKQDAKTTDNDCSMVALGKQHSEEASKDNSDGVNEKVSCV

Regarding `CN(C)CCC=C1c2ccccc2CCc2ccccc21` [amitriptyline], in series [1], the “appetite increase reported, share of patients” value was 6% and the “weight gain of greater than or equal to 7% of body weight, share of patients” value is recorded as 5.9%.
Turning to `CNCCc1ccccn1` [betahistine, 2-[2-(methylamino)ethyl]pyridine], in series [2], the food intake result is recorded as “marginally inhibit food intake” and the satiety signaling entry is recorded as “increase the satiety signaling”. Besides, in series [3], the side effects entry was “causes insomnia, nausea/vomiting, and weight loss”. Moreover, the blood-brain barrier passage result in series [4] is “crosses the blood-brain barrier”.
Consider `CN1CCN2c3ncccc3Cc3ccccc3C2C1` (centres unmarked) [mirtazapine, 1,2,3,4,10,14b-hexahydro-2-methylpyrazino[2,1-a]pyrido[2,3-c]benzazepine], for which, in the series with alpha-2 receptors, the “antagonist activity at central alpha-2 receptors” value is given as “potent antagonist”. Also, at 5HT3 serotonin receptors, the “antagonist activity at 5HT3 serotonin receptors” value is recorded as “potent antagonist”. Moreover, the “antagonist activity at muscarinic cholinergic receptors” value in [5] is “moderate antagonist; also recorded: weak antagonist”. Also, the “effect on the reuptake of 5HT” value at reuptake of 5HT was “no effect”. Besides, the “antagonist activity at 5HT2A serotonin receptors” value in series [6] is given as “potent antagonist”. In addition, the “inhibition of norepinephrine reuptake” value on norepinephrine reuptake is given as “very weak inhibitor”. On 5HT1A receptors, the “affinity for the 5HT1A receptors” value was “lacks significant affinity”. Moreover, the “effect on the reuptake of dopamine” value on reuptake of dopamine was “no effect”. On histamine H1 receptors, the “antagonist activity at histamine H1 receptors” value is recorded as “potent antagonist”. For the same compound, the “antagonist activity at 5HT2C serotonin receptors” value in series [7] was “potent antagonist”. Besides, the side effects entry in series [3] is “does cause weight gain, sedation, and cognitive deficits”. Besides, the “affinity for the 5HT1B receptors” value at 5HT1B receptors is listed as “lacks significant affinity”. Moreover, the “antagonist activity at alpha-1 adrenergic receptors” value in series [8] was “moderate; also recorded: weak antagonist”. For the same compound, the “antagonist activity at 5HT2 receptors” value in the series with 5HT2 receptors is “potent antagonist”.
